pEC50: −log10 of the molar value.
Tested on: HMPV clinical isolate A2 strain TN 94-49
Experiment: HMPV antiviral assay, Method 2 (LLC-MK2 cells with CP-100-356, ATP-Lite)
Format: cell-based
Conditions: human metapneumovirus, 168 h; hMPV A2 TN/94-49, LLC-MK2 cells with 4 μM CP-100-356, 7 days, ATP-Lite
How it was run: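 LLC-MK2 rhesus kidney cells (5,000/well) infected in suspension with HMPV A2 TN 94-49 at MOI 0.16, in serum-free medium with final 2 μg/mL TPCK-trypsin and 2 μM CP-100-356. Compounds tested in duplicate from 200 nM, 2.5-fold, 10 points; 7 days at 37 °C. Cell health by ATP-Lite luminescence; EC50 by four-parameter fit.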

Row | SMILES | pEC50
1 | COc1cc(C(=O)NC[C@](O)(c2cc3c(c(-c4ccnc(C)c4F)n2)OC[C@]3(C)C(N)=O)C2CC2)cc2cn(C3CC3)nc12 [Example 817] | > 6.70
2 | COc1cccc2c1ccn2-c1nc([C@@](O)(CNC(=O)c2cc(OC)c3nn(C4CC4)cc3c2)C2CC2)cc2c1OC[C@]2(C)C(N)=O [Example 839] | > 6.70
3 | COc1cc(C(=O)NC[C@](O)(c2cc3c(c(-c4ccnc(C(F)(F)F)c4)n2)OC[C@]3(C)C(N)=O)C2CC2)cc2oc(C3CC3)nc12 [Example 763] | > 6.70
4 | COc1cc(-c2nc([C@@](O)(CNC(=O)c3cc(OC)c4nn(C5CC5)cc4c3)C3CC3)cc3c2OC[C@]3(C)C(N)=O)ccn1 [Example 832] | < 6.70
5 | COc1nccc(-c2nc([C@@](O)(CNC(=O)c3cc(OC)c4nn(C(F)F)cc4c3)C(F)(F)F)cc3c2OC[C@]3(C)C(N)=O)c1Cl [Example 798] | > 6.70
6 | C[C@]1(C(N)=O)COc2c1cc([C@@](O)(CNC(=O)c1cc(OC3CC3)c3nn(C4CC4)cc3c1)C1CC1)nc2-n1ncc2c(F)cccc21 [Example 650] | > 6.70
7 | COc1cc(C(=O)NC[C@](O)(c2cc3c(c(-c4cccc(F)c4Cl)n2)OC[C@]3(C)C(N)=O)C2CC2)cc2cc(C3CC3)nn12 [Example 632] | > 6.70
8 | COc1cc(C(=O)NC[C@](O)(c2cc3c(c(-c4ccnc(C(C)C)c4Cl)n2)OC[C@]3(C)C(N)=O)C2CC2)cc2cn(C3CC3)nc12 [Example 810] | > 6.70
9 | COc1nccc(-c2nc([C@@](O)(CNC(=O)c3cc(OC)c4nn(C5CC5)cc4c3)C3CC3)cc3c2OC[C@]3(C)C(N)=O)c1OC [Example 813] | < 6.70

The next lines start with the values.

Row | pEC50 | SMILES
10 | > 6.70 | COc1cc(C(=O)NC[C@](O)(c2cc3c(c(-c4ccnc(N(C)C)c4Cl)n2)OC[C@]3(C)C(N)=O)C2CC2)cc2cn(C3CC3)nc12 [Example 811]
11 | < 6.70 | COc1cc(C(=O)NC[C@@](O)(c2ccccc2)c2cc3c(c(-n4ncc5c(F)cccc54)n2)OC[C@]3(C)C(N)=O)cc2sc(N)nc12 [Example 633]
12 | > 6.70 | COc1cc(-c2nc([C@@](O)(CNC(=O)c3cc(OC)n4nc(C5CC5)cc4c3)c3ccccc3)cc3c2OC[C@]3(C)C(N)=O)c(F)cn1 [Example 639]
13 | > 6.70 | COc1nccc(-c2nc([C@@](O)(CNC(=O)c3cc(OC4CC4)c4nn(C5CC5)cc4c3)C3(F)CC3)cc3c2OC[C@]3(C)C(N)=O)c1Cl [Example 657]
14 | < 6.70 | COc1cc(C(=O)NC[C@](O)(c2cc3c(c(-c4ccnc(C(C)C)c4Cl)n2)OC[C@]3(C)C(N)=O)C2CC2)cc2oc(C3CC3)nc12 [Example 909]
15 | < 6.70 | COc1nccc(-c2nc([C@@](O)(CNC(=O)c3cc(OC)c4nc(C5CC5)oc4c3)C3CC(F)(F)C3)cc3c2OC[C@]3(C)C(N)=O)c1Cl [Example 897]

Same assay, conditions: human metapneumovirus; hMPV A2 TN/94-49, LLC-MK2 cells with CP-100-356, Method 2

Row | SMILES | pEC50
16 | COc1cc([C@](O)(CNC(=O)c2cc(OC)c3nn(C(F)F)cc3c2)c2cc3c(c(-c4cccc(Cl)c4Cl)n2)OC[C@]3(C)C(N)=O)cc(OC)n1 [Example 498] | > 6.70
17 | COc1cc(C(=O)NC[C@@](O)(c2cccc(F)c2)c2cc3c(c(-c4cc(F)c(F)cc4C(N)=O)n2)OC[C@]3(C)C(N)=O)cc2cn(C3(F)CC3)nc12 [Example 405] | < 6.70
18 | COc1cc(C(=O)NC[C@](O)(c2cc3c(c(-c4ccnc5[nH]ccc45)n2)OC[C@]3(C)C(N)=O)C2CC2)cc2cn(C3CC3)nc12 [Example 429] | < 6.70
19 | COc1cc(C(=O)NC[C@@](O)(c2ccccc2)c2cc3c(c(-c4ccc5c(c4)OC(F)(F)O5)n2)OC[C@]3(C)C(N)=O)cc2oc(C)nc12 [Example 201] | > 6.70
20 | COc1nccc(-c2nc([C@@](O)(CNC(=O)c3cc(OC)c4nc(C5CC5)oc4c3)C(F)(F)F)cc3c2OC[C@]3(C)C(N)=O)c1Cl [Example 545] | > 6.70
21 | COc1cc(C(=O)NC[C@](O)(c2cc3c(c(-c4ccnc(Cl)c4Cl)n2)OC[C@]3(C)C(N)=O)C2(F)CC2)cc2cn(C3(F)CC3)nc12 [Example 519] | > 6.70
22 | COc1cc(C(=O)NCC(O)(c2cccc(F)c2)c2cc3c(c(-c4cccc(Cl)c4C#N)n2)OC[C@]3(C)C(N)=O)cc2cn(C3(F)CC3)nc12 (stereo partly shown) [Example 399] | < 6.70
23 | COc1cc(C(=O)NC[C@](O)(c2cc3c(c(-c4c(C)cncc4F)n2)OC[C@]3(C)C(N)=O)C2CC2)cc2cn(C3CC3)nc12 [Example 435] | > 6.70
24 | COc1cc(C(=O)NC[C@](O)(c2cc3c(c(-c4ccnc(C)c4Cl)n2)OC[C@]3(C)C(N)=O)C2(F)CC2)cn2cc(C3(F)CC3)nc12 [Example 528] | < 6.70
25 | COc1cc(F)c(F)cc1-c1nc([C@@](O)(CNC(=O)c2cc(OC)c3nn(C4(F)CC4)cc3c2)c2ccccc2)cc2c1OC[C@]2(C)C(N)=O [Example 365] | > 6.70
26 | C[C@]1(C(N)=O)COc2c1cc([C@@](O)(CNC(=O)c1cc(OC3CC3)c3nn(C(F)F)cc3c1)C(F)(F)F)nc2-c1ccnc(C(F)(F)F)c1Cl [Example 594] | > 6.70
27 | COc1cc(C(=O)NC[C@](O)(c2cc3c(c(-c4ccnc(C(F)F)c4Cl)n2)OC[C@]3(C)C(N)=O)C(F)(F)F)cc2sc(C)nc12 [Example 551] | > 6.70
28 | COc1cc(C(=O)NC[C@@](O)(c2ccccc2)c2cc3c(c(-c4cc(S(C)(=O)=O)ccc4F)n2)OC[C@]3(C)C(N)=O)cc2cn(C3(F)CC3)nc12 [Example 372] | < 6.70
29 | COc1cccc([C@](O)(CNC(=O)c2cc(OC)c3nn(C4CC4)cc3c2)c2cc3c(c(-c4cccc(Cl)c4Cl)n2)OC[C@]3(C)C(N)=O)n1 [Example 496] | > 6.70
30 | COc1cc(C(=O)NC[C@@](O)(c2ccccc2)c2cc3c(c(-c4ccc(S(C)(=O)=O)cc4F)n2)OC[C@]3(C)C(N)=O)cc2cn(C3(F)CC3)nc12 [Example 371] | < 6.70
31 | COc1cc(C(=O)NC[C@@](O)(c2ccc(S(C)(=O)=O)cc2)c2cc3c(c(-c4cc(Cl)c(F)cc4F)n2)OC[C@]3(C)C(N)=O)cc2cn(C3CC3)nc12 [Example 482] | < 6.70
32 | COc1cc(C(=O)NC[C@@](O)(c2cccc(C(C)=O)c2)c2cc3c(c(-c4cccc(Cl)c4Cl)n2)OC[C@]3(C)C(N)=O)cc2cn(C3CC3)nc12 [Example 493] | > 6.70
33 | COc1cc(C(=O)NC[C@@](O)(c2cnoc2)c2cc3c(c(-c4cc(Cl)c(F)cc4F)n2)OC[C@]3(C)C(N)=O)cc2cn(C3CC3)nc12 [Example 491] | > 6.70

The remaining lines, values ahead:

Row | pEC50 | SMILES
34 | > 6.70 | COc1cc(C(=O)NC[C@@](O)(c2cccc(F)n2)c2cc3c(c(-c4ccc(F)c(Cl)c4Cl)n2)OC[C@]3(C)C(N)=O)cc2cn(C3CC3)nc12 [Example 340]
35 | < 6.70 | COc1cc(C(=O)NCC(O)(c2cc3c(c(-c4cc(C(F)(F)F)ncc4Cl)n2)OC[C@]3(C)C(N)=O)C2CC2)cc2cn(C3CC3)nc12 (stereo partly shown) [Example 418]
36 | > 6.70 | COc1cc(C(=O)NC[C@@](O)(c2ccccc2)c2cc3c(c(-c4cc(F)c(F)cc4F)n2)OC[C@]3(C)C(N)=O)cc2cc(Cl)cnc12 [Example 198]
37 | < 6.70 | COc1cc(C(=O)NC[C@@](O)(c2cnn(C)c2)c2cc3c(c(-c4cc(Cl)c(F)cc4F)n2)OC[C@]3(C)C(N)=O)cc2cn(C3CC3)nc12 [Example 153]
38 | > 6.70 | COc1nccc(-c2nc([C@@](O)(CNC(=O)c3cc(OC)c4nc(C5CC5)oc4c3)c3cccc(F)c3)cc3c2OC[C@]3(C)C(N)=O)c1Cl [Example 560]
39 | < 6.70 | C[C@]1(C(N)=O)COc2c1cc([C@@](O)(CNC(=O)c1ccc3nc(-c4ccccc4)oc3c1)c1ccccc1)nc2-c1cc(Cl)c(F)cc1F [Example 227]
40 | > 6.70 | C[C@]1(C(N)=O)COc2c1cc([C@@](O)(CNC(=O)c1cc(OC3CC3)c3nc(C4CC4)oc3c1)c1ccccc1)nc2-c1cc(Cl)c(F)cc1F [Example 233]
41 | < 6.70 | COc1cc(C(=O)NC[C@@](O)(c2cc3c(c(-n4ccc5ccccc54)n2)OC[C@]3(C)C(N)=O)C2CC2)cc2cn(C3CC3)nc12 [Example 444]
42 | > 6.70 | [2H]C([2H])([2H])NC(=O)[C@@]1(C)COc2c1cc([C@@](O)(CNC(=O)c1cc(OC)c3nn(C4(F)CC4)cc3c1)c1ccccc1)nc2-c1cc(Cl)c(F)cc1F [Example 109]
43 | > 6.70 | COc1cc(C(=O)NC[C@@](O)(c2ccc(F)cc2)c2cc3c(c(-c4ccnc(C(F)F)c4Cl)n2)OC[C@]3(C)C(N)=O)cc2cn(C3CC3)nc12 [Example 569]
44 | < 6.70 | COc1cc(C(=O)NC[C@@](O)(c2cc[nH]c(=O)c2)c2cc3c(c(-c4cc(Cl)c(F)cc4F)n2)OC[C@]3(C)C(N)=O)cc2cn(C3CC3)nc12 [Example 504]
45 | < 6.70 | Cc1nc2c(OC(F)(F)F)cc(C(=O)NC[C@@](O)(c3ccccc3)c3cc4c(c(-c5cc(Cl)c(F)cc5F)n3)OC[C@]4(C)C(N)=O)cc2s1 [Example 188]
46 | > 6.70 | COc1cc(C(=O)NC[C@@](O)(c2ccnc(C)c2)c2cc3c(c(-c4cc(Cl)c(F)cc4F)n2)OC[C@]3(C)C(N)=O)cc2cn(C3CC3)nc12 [Example 485]
47 | > 6.70 | COc1nccc(-c2nc([C@@](O)(CNC(=O)c3cc(OC)c4nc(C5CC5)cn4c3)C(F)(F)F)cc3c2OC[C@]3(C)C(N)=O)c1Cl [Example 589]
48 | > 6.70 | COc1cc(C(=O)NC[C@](O)(c2cc3c(c(-c4cc(C(F)(F)F)ncc4F)n2)OC[C@]3(C)C(N)=O)C2CC2)cn2cc(C3CC3)nc12 [Example 246]
49 | > 6.70 | COc1cc(C(=O)NC[C@@](O)(c2ccnc(N)c2)c2cc3c(c(-c4cc(Cl)c(F)cc4F)n2)OC[C@]3(C)C(N)=O)cc2cn(C3CC3)nc12 [Example 484]
50 | > 6.70 | COc1cc(C(=O)NC[C@](O)(c2cc3c(c(-c4ccc(F)c(C(F)(F)F)c4)n2)OC[C@]3(C)C(N)=O)C2CC2)cc2oc(C3CC3)nc12 [Example 330]
51 | > 6.70 | COc1nccc(-c2nc([C@@](O)(CNC(=O)c3cc(OC)c4nc(C(F)F)oc4c3)c3ccccc3)cc3c2OC[C@]3(C)C(N)=O)c1Cl [Example 557]
52 | > 6.70 | COc1cc(C(=O)NC[C@@](O)(c2ccccc2)c2cc3c(c(-c4cccc(F)c4F)n2)OC[C@]3(C)C(N)=O)cc2cn(C3(F)CC3)nc12 [Example 367]

From patent US20240368174A1, “Antiviral Heterocyclic Compounds” (Enanta Pharmaceuticals, Inc., priority 2023, published 2024)
